What is called EC50 is the concentration giving half of the maximal effect. A high value points to a less potent agent. A word on the inhibition: it is the share of the control response that was lost under treatment.

We go through ten compounds from US10604512B2, “3-(1H-indol-2-yl)-1H-indazoles and therapeutic uses thereof” (Samumed, LLC, priority 2015, dated 2020).

Holding throughout (assay type): cell-based
For assay [1], the system named is Wnt activity (Sp5-Luc reporter, TCF/LEF binding sites) in SW480 colon carcinoma cells. Nature of the assay: Screening assay for Wnt activity: Sp5-Luc reporter gene assay in stably transduced SW480 colon carcinoma cells. Particulars: Homo sapiens; for EC50: overnight incubation, 10-point curve from 10 μM; for inhibition at 10 µM: given where EC50 >10 μM, read-out: percent inhibition at 10 μM. In short, it runs like this: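 SW480 cells stably transduced with a luciferase reporter driven by an Sp5 promoter of eight TCF/LEF sites were plated at 4,000 cells/well in 1% FBS medium. They were exposed overnight at 37° C to a 10-point 1:3 dilution series from 10 μM (0.1% DMSO). Luminescence was normalized to DMSO for four-parameter EC50, or percent inhibition at 10 μM.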
(In general: Reporter assays use an easily measured gene product as a stand-in for the process of interest.)

The subject of assay [2] is Primary human fibroblasts derived from IPF patients (LL29 cells) treated with TGF-β1. Nature of the assay: Inhibition of the fibrotic process: αSMA staining in TGF-β1-treated primary human fibroblasts from IPF patients (LL29 cells). Particulars: Fibroblast, 96 h; for EC50: % αSMA-positive LL29 cells, TGF-β1 20 ng/mL, 4 days; for inhibition at 10 µM: given where EC50 >10 μM, αSMA, LL29 cells, TGF-β1, 4 days, read-out: percent inhibition at 10 μM. In short, it runs like this:
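LL29 IPF-patient fibroblasts in 1% FBS stimulated with TGF-β1 (20 ng/mL) and compound (10 μM–1.87 nM, 0.1% DMSO) for 4 days at 37 °C. SYTOX-positive cells excluded; % αSMA-positive cells imaged, normalized to TGF-β1/DMSO wells; EC50 by nonlinear regression, else % inhibition at 10 μM.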

For assay [3], the system named is SW480 colon cancer cells. As to the kind of experiment: Cell viability assay (CellTiter-Blue) in SW480 colon cancer cells. Particulars: Homo sapiens, 96 h, four days; for inhibition at 10 µM: given where EC50 >10 μM, read-out: percent inhibition at 10 μM; for EC50: CellTiter-Blue. The method, boiled down: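 SW480 colon cancer cells (~2×10^3/well) exposed to 8-point 1:3 dilutions from 10 μM to 0.0045 μM for four days at 37 °C/5% CO2. Viability read by resazurin (CellTiter-Blue) fluorescence after ~3 h, Ex 560/Em 590 nm. EC50 from non-linear regression; percent inhibition at 10 μM given when EC50 >10 μM.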
In general terms: Resazurin is reduced to fluorescent resorufin, in cell work by metabolically active cells.

Turning to `CC(C)(C)CC(=O)Nc1cncc(-c2ccc3[nH]nc(-c4cc5ccccc5[nH]4)c3c2)c1` [Compound 268, N-(5-(3-(1H-Indol-2-yl)-1H-indazol-5-yl)pyridin-3-yl)-3,3-dimethylbutanamide], the figures for the EC50 in assay [1], in assay [2] and in assay [3] were 185 nM, 6890 nM and above 10000 nM, respectively. Also, the inhibition at 10 µM in assay [3] was determined as 12.4%.
In the case of `Cc1ncc(-c2ccc3[nH]nc(-c4cc5c(-c6ccncc6)cccc5[nH]4)c3c2)n1C` [Compound 601, 5-(1,2-Dimethyl-1H-imidazol-5-yl)-3-(4-(pyridin-4-yl)-1H-indol-2-yl)-1H-indazole], the inhibition at 10 µM in assay [1] came to 32.4%. Besides, the EC50 in assay [1] was above 10000 nM; in assay [2], 4190 nM; in assay [3], 5960 nM.
`c1ccc2[nH]c(-c3n[nH]c4ccc(-c5cncc(CN6CCCCC6)c5)cc34)cc2c1` [Compound 267, 3-(1H-Indol-2-yl)-5-(5-(piperidin-1-ylmethyl)pyridin-3-yl)-1H-indazole]: the EC50 in assay [1] is 675 nM; in assay [2] it was above 10000 nM; in assay [3] it was above 10000 nM. The inhibition at 10 µM in assay [2] is 49.9%; in assay [3], 7.8%.
For the compound `Cc1ccncc1-c1ccc2[nH]nc(-c3cc4c(-c5ccccn5)cccc4[nH]3)c2c1` [Compound 145, 5-(4-Methylpyridin-3-yl)-3-(4-(pyridin-2-yl)-1H-indol-2-yl)-1H-indazole], the EC50 in assay [1] was 1900 nM; in assay [2], 2940 nM; in assay [3], above 10000 nM. In addition, the inhibition at 10 µM in assay [3] turned out to be 36.7%.
Turning to `CCC(=O)Nc1cncc(-c2ccc3[nH]nc(-c4cc5c(-c6cccnc6)cccc5[nH]4)c3c2)c1` [Compound 85, N-(5-(3-(4-(Pyridin-3-yl)-1H-indol-2-yl)-1H-indazol-5-yl)pyridin-3-yl) propionamide], the figures for the concentration giving a half-maximal response (EC50) in assay [1], in assay [2] and in assay [3] were 65 nM, 66 nM and 479 nM, respectively.
Turning to `O=C(Nc1cncc(-c2ccc3[nH]nc(-c4cc5ccccc5[nH]4)c3c2)c1)C1CCC1` [Compound 273, N-(5-(3-(1H-Indol-2-yl)-1H-indazol-5-yl)pyridin-3-yl) cyclobutanecarboxamide], the 50% effective concentration (EC50) in assay [1] was 685 nM; in assay [2], above 10000 nM; in assay [3] it was above 10000 nM. For the same compound, the inhibition at 10 µM in assay [2] was 3.5%; in assay [3], 17.8%.
Consider `FC1(F)CCN(Cc2cncc(-c3ccc4[nH]nc(-c5cc6c(N7CCCCC7)cccc6[nH]5)c4c3)c2)C1` [Compound 194, 5-(5-((3,3-Difluoropyrrolidin-1-yl)methyl)pyridin-3-yl)-3-(4-(piperidin-1-yl)-1H-indol-2-yl)-1H-indazole], for which the values for the EC50 in assay [1], in assay [2] and in assay [3] were 750 nM, 1310 nM and 4430 nM, respectively.
In the case of `O=C(Nc1cncc(-c2ccc3[nH]nc(-c4cc5ccccc5[nH]4)c3c2)c1)c1ccccc1` [Compound 263, N-(5-(3-(1H-Indol-2-yl)-1H-indazol-5-yl)pyridin-3-yl)benzamide], the EC50 in assay [1] was 380 nM; in assay [2], 1570 nM; in assay [3] it was above 10000 nM. The inhibition at 10 µM in assay [3] was 2.9%.
`O=C(Cc1ccccc1)Nc1cncc(-c2ccc3[nH]nc(-c4cc5ccccc5[nH]4)c3c2)c1` [Compound 262, N-(5-(3-(1H-Indol-2-yl)-1H-indazol-5-yl)pyridin-3-yl)-2-phenylacetamide]: the results for the EC50 in assay [1], in assay [2] and in assay [3] were 1560 nM, above 10000 nM and above 10000 nM, respectively. Also, the figures for the inhibition at 10 µM in assay [2] and in assay [3] were 31.8% and 11.4%, respectively.
With `c1cc(-c2ccncc2)c2cc(-c3n[nH]c4ccc(-c5ccncc5)cc34)[nH]c2c1` [Compound 130, 5-(Pyridin-4-yl)-3-(4-(pyridin-4-yl)-1H-indol-2-yl)-1H-indazole], the inhibition at 10 µM in assay [1] was determined as 52.8%; in assay [3], 23.2%. For the same compound, the EC50 was above 10000 nM in assay [1], 1650 nM in assay [2] and above 10000 nM in assay [3].
